Assay type in all cases: in vivo
For assay [1], the system named is Alopecurus myosuroides (ALOMY). Description: Pre-emergence herbicidal activity, glasshouse pot test. The settings on record: Alopecurus myosuroides, 312 h; Rate 250 g/ha; pre-emergence spray; evaluated after 13 days; read-out: Pre-emergence activity ALOMY (100=total damage to plant; 0=no damage to plant). The method in brief: (§1)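 Herbicide damage scored 0–100 at 13 d. Pre-emergence: spray 1 d after sowing; post-emergence: spray after 8 d growth. Formulation acetone/water 50:50, 0.5% Tween 20, aqueous spray.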

Assay [2] relates to Avena fatua (AVEFA). Described as above. The settings on record: Avena fatua, 312 h; Rate 250 g/ha; pre-emergence spray; evaluated after 13 days; read-out: Pre-emergence activity AVEFA (100=total damage to plant; 0=no damage to plant). In outline:
as §1

In assay [3] the test system is Echinochloa crus-galli (ECHCG). Described as above. The settings on record: Echinochloa crus-galli, 312 h; Rate 250 g/ha; pre-emergence spray; evaluated after 13 days; read-out: Pre-emergence activity ECHCG (100=total damage to plant; 0=no damage to plant). The method in brief: as §1
The subject of assay [4] is Lolium perenne (LOLPE). The assay is described as above. The settings on record: Lolium perenne, 312 h; Rate 250 g/ha; pre-emergence spray; evaluated after 13 days; read-out: Pre-emergence activity LOLPE (100=total damage to plant; 0=no damage to plant). In outline:
as §1

For assay [5], the system named is Alopecurus myosuroides (ALOMY). Description: Post-emergence herbicidal activity, glasshouse pot test. Particulars: Alopecurus myosuroides, 312 h, rate 250 g/ha, evaluated after 13 days, glasshouse, read-out: Post-emergence activity ALOMY (100=total damage to plant; 0=no damage to plant). The method in brief:
as §1

For assay [6], the system named is Avena fatua (AVEFA). Described as above. Particulars: Avena fatua, 312 h, rate 250 g/ha, evaluated after 13 days, glasshouse, read-out: Post-emergence activity AVEFA (100=total damage to plant; 0=no damage to plant). In outline: as §1
The subject of assay [7] is Echinochloa crus-galli (ECHCG). The description is as above. The settings on record: Echinochloa crus-galli, 312 h, rate 250 g/ha, evaluated after 13 days, glasshouse, read-out: Post-emergence activity ECHCG (100=total damage to plant; 0=no damage to plant). In outline:
as §1

Assay [8] relates to Lolium perenne (LOLPE). Described as above. Particulars: Lolium perenne, 312 h, rate 250 g/ha, evaluated after 13 days, glasshouse, read-out: Post-emergence activity LOLPE (100=total damage to plant; 0=no damage to plant). The method in brief: as §1

Consider `CCc1ccc(Oc2ncc(C(F)(F)F)cc2Cl)cc1C1=C(O)C(C)(C)OC(C)(C)C1=O` [Example A-45], for which the pest or weed control at 250 g/ha (in assay [1]; in the assay with Avena fatua (AVEFA) [2]; in assay [3]; in the assay on Lolium perenne (LOLPE) [4]; in assay [5]; in the assay with Avena fatua (AVEFA) [6]) was 100% in each case. The pest or weed control at 250 g/ha (in assay [7]; in the assay with Lolium perenne (LOLPE) [8]) was 100% throughout.
In the case of `CCc1ccc(Oc2ccc(C(F)(F)F)cc2[N+](=O)[O-])cc1C1=C(O)C(C)(C)OC(C)(C)C1=O` [Example A-203], the pest or weed control at 250 g/ha in assay [1] is 20%; with Avena fatua (AVEFA) [2] it was 30%; in assay [3], 50%; with Lolium perenne (LOLPE) [4], 90%; in assay [5] it was 90%; in the assay on Avena fatua (AVEFA) [6], 100%. For the same molecule, the pest or weed control at 250 g/ha (in assay [7]; with Lolium perenne (LOLPE) [8]) was 90% each time.
For `CCc1ccc(Oc2ccc([N+](=O)[O-])cc2C(F)(F)F)cc1C1=C(O)C(C)(C)OC(C)(C)C1=O` [Example A-198], the pest or weed control at 250 g/ha is 0% in assay [1]; 0% in the assay on Avena fatua (AVEFA) [2]; 60% in assay [3]; 10% with Lolium perenne (LOLPE) [4]; 70% in assay [5]; 60% in the assay with Avena fatua (AVEFA) [6]. In addition, the values for the pest or weed control at 250 g/ha (in assay [7]; in the assay on Lolium perenne (LOLPE) [8]) were 100% and 70%, respectively.
On to `CCc1ccc(Oc2nc3ccccc3cc2C)cc1C1=C(O)C(C)(C)OC(C)(C)C1=O` [Example A-253], for which the pest or weed control at 250 g/ha was 70% in assay [1]; 30% in the assay with Avena fatua (AVEFA) [2]; 80% in assay [3]; 100% in the assay on Lolium perenne (LOLPE) [4]; 50% in assay [5]; 40% in the assay on Avena fatua (AVEFA) [6]. Moreover, the pest or weed control at 250 g/ha (in assay [7]; with Lolium perenne (LOLPE) [8]) was 70% in each case.
For `CCc1ccc(Oc2ccc(Br)cc2[N+](=O)[O-])cc1C1=C(O)C(C)(C)OC(C)(C)C1=O` [Example A-227], the pest or weed control at 250 g/ha in assay [1] is 30%; in the assay on Avena fatua (AVEFA) [2], 20%; in assay [3] it was 80%; in the assay with Lolium perenne (LOLPE) [4], 60%; in assay [5], 70%; with Avena fatua (AVEFA) [6] it was 60%. Besides, the pest or weed control at 250 g/ha in assay [7] was 90%; in the assay with Lolium perenne (LOLPE) [8], 70%.
As to `CCc1ccc(Oc2ncc(C(F)(F)F)cc2C(F)(F)F)cc1C1=C(O)[C@@H]2CC[C@](C)(C1=O)C2(C)C` [Example A-324], the pest or weed control at 250 g/ha in assay [1] was found to be 90%; in the assay with Avena fatua (AVEFA) [2] it was 90%; in assay [3], 100%; with Lolium perenne (LOLPE) [4], 100%; in assay [5], 100%; with Avena fatua (AVEFA) [6], 100%. Further, the pest or weed control at 250 g/ha (in assay [7]; in the assay with Lolium perenne (LOLPE) [8]) was 100% each time.
As to `CCc1ccc(Oc2cc(Cl)c3ccccc3n2)cc1C1=C(O)C(C)(C)OC(C)(C)C1=O` [Example A-251], the pest or weed control at 250 g/ha amounted to 40% in assay [1]; 20% with Avena fatua (AVEFA) [2]; 100% in assay [3]; 80% with Lolium perenne (LOLPE) [4]; 80% in assay [5]; 30% with Avena fatua (AVEFA) [6]. For the same molecule, the pest or weed control at 250 g/ha in assay [7] is 100%; in the assay on Lolium perenne (LOLPE) [8] it was 0%.
Consider `CCc1ccc(Oc2c(F)ncc(Cl)c2F)cc1C1=C(O)C(C)(C)OC(C)(C)C1=O` [Example A-192], for which the pest or weed control at 250 g/ha in assay [1] worked out at 0%; in the assay with Avena fatua (AVEFA) [2], 0%; in assay [3], 20%; in the assay with Lolium perenne (LOLPE) [4], 0%; in assay [5] it was 0%; with Avena fatua (AVEFA) [6], 10%. Besides, the pest or weed control at 250 g/ha in assay [7] is 40%; in the assay on Lolium perenne (LOLPE) [8], 10%.
Turning to `CCc1ccc(Oc2ccc(C(F)(F)F)cn2)cc1C1=C(O)[C@H]2CC[C@H](C2)C1=O` [Example A-334], the pest or weed control at 250 g/ha came to 100% in assay [1]; 100% with Avena fatua (AVEFA) [2]; 100% in assay [3]; 100% in the assay on Lolium perenne (LOLPE) [4]; 90% in assay [5]; 100% in the assay with Avena fatua (AVEFA) [6]. Besides, the pest or weed control at 250 g/ha (in assay [7]; with Lolium perenne (LOLPE) [8]) was 100% throughout.
On to `CCc1ccc(Oc2nc3cc(Cl)ccc3s2)cc1C1=C(O)CC2(CCOCC2)CC1=O` [Example A-308], for which the pest or weed control at 250 g/ha turned out to be 90% in assay [1]; 80% in the assay on Avena fatua (AVEFA) [2]; 100% in assay [3]; 70% in the assay with Lolium perenne (LOLPE) [4]; 90% in assay [5]; 100% in the assay on Avena fatua (AVEFA) [6]. Moreover, the pest or weed control at 250 g/ha (in assay [7]; in the assay on Lolium perenne (LOLPE) [8]) was 100% in each case.
For the molecule `CCc1ccc(Oc2ccc(Br)cc2)cc1C1=C(O)C(C)(C)OC(C)(C)C1=O` [Example A-8], the pest or weed control at 250 g/ha in assay [1] was 60%; in the assay with Avena fatua (AVEFA) [2] it was 10%; in assay [3] it was 100%; in the assay on Lolium perenne (LOLPE) [4] it was 100%; in assay [5], 100%; in the assay with Avena fatua (AVEFA) [6], 0%. Moreover, the pest or weed control at 250 g/ha (in assay [7]; in the assay on Lolium perenne (LOLPE) [8]) was 100% in each case.
Take `CCc1ccc(Oc2ncc(Cl)cc2C(F)(F)F)cc1C1=C(O)C(C)(C)OC(C)(C)C1=O` [Example A-143]: the pest or weed control at 250 g/ha is 60% in assay [1]; 40% with Avena fatua (AVEFA) [2]; 100% in assay [3]; 70% with Lolium perenne (LOLPE) [4]; 100% in assay [5]; 100% in the assay on Avena fatua (AVEFA) [6]. In addition, the pest or weed control at 250 g/ha (in assay [7]; in the assay on Lolium perenne (LOLPE) [8]) was 100% in each case.
As to `CCc1ccc(Oc2ccc(C(F)(F)F)cc2Cl)cc1C1=C(O)CC2(CCOCC2)CC1=O` [Example A-271], the pest or weed control at 250 g/ha was found to be 90% in assay [1]; 50% in the assay on Avena fatua (AVEFA) [2]; 100% in assay [3]; 90% in the assay on Lolium perenne (LOLPE) [4]; 90% in assay [5]; 90% in the assay on Avena fatua (AVEFA) [6]. The results for the pest or weed control at 250 g/ha (in assay [7]; in the assay with Lolium perenne (LOLPE) [8]) were 100% and 70%, respectively.
Regarding `CCc1ccc(Oc2ccc3ccccc3n2)cc1C1=C(O)C(C)(C)OC(C)(C)C1=O` [Example A-223], the pest or weed control at 250 g/ha in assay [1] amounted to 80%; with Avena fatua (AVEFA) [2], 50%; in assay [3], 100%; with Lolium perenne (LOLPE) [4] it was 90%; in assay [5], 100%; with Avena fatua (AVEFA) [6], 60%. For the same molecule, the pest or weed control at 250 g/ha in assay [7] stood at 100%; in the assay on Lolium perenne (LOLPE) [8], 90%.

For the origin of these results see patent US8865623B2, “Herbicidally active cyclic diones and derivatives thereof, processes for their preparation, compositions, and method of controlling weeds” (Syngenta Limited, priority 2009, dated 2014).
